Blank lines part the entries; values can stand above or below the compound they belong to.
Assays:
[1] = target: Cyclin-dependent kinase 5/CDK5 activator 1 (Homo sapiens) (UniProt Q00535+Q15078); assay: Inhibition of CDK5/p35 (unknown origin) at 100 nM in presence of ATP relative to control; format: protein-complex assay
MIA PaCa-2 [2] = assay: Induction of apoptosis in human MIAPaCa2 cells assessed as increase in caspases 3/7 activity at 10 uM after 12 hrs by Caspase-Glo assay relative to control; format: functional
ASPC1 = assay: Antiproliferative activity against human AsPC1 cells after 72 hrs by prestoblue assay; format: functional, cell-based; conditions: ASPC1, 72 h
BXPC-3 = assay: Antiproliferative activity against human BxPC3 cells after 72 hrs by prestoblue assay; format: functional, cell-based; conditions: BXPC-3, 72 h
MIA PaCa-2 [3] = assay: Antiproliferative activity against human MIAPaCa2 cells after 72 hrs by prestoblue assay; format: functional, cell-based; conditions: MIA PaCa-2, 72 h
[4] = Antiproliferative activity against human SUIT2 cells after 72 hrs by prestoblue assay; format: functional, cell-based; conditions: SUIT-2, 72 h
[5] = Antiproliferative activity against human S2-013 cells after 72 hrs by prestoblue assay; format: functional, cell-based
[6] = target: Cyclin-dependent kinase 2/cyclin E1 (Homo sapiens, UniProt P24941); assay: Inhibition of CDK2/CyclinE (unknown origin) in presence of ATP; format: protein-complex assay
[7] = target: Cyclin-dependent kinase 5/CDK5 activator 1 (Homo sapiens, UniProt Q00535); assay: Inhibition of CDK5/p35 (unknown origin) in presence of ATP; format: protein-complex assay
Chain of Cyclin-dependent kinase 5/CDK5 activator 1 (Q00535 whole entry): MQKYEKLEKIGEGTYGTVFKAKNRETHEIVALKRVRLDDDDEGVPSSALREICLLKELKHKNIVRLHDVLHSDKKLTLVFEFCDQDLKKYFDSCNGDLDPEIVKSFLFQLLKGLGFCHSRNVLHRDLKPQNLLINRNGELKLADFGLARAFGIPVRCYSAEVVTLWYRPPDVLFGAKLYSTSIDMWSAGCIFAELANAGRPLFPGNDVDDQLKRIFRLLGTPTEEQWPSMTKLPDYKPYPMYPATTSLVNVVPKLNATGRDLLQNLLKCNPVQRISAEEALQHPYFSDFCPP
Chain of Cyclin-dependent kinase 5/CDK5 activator 1 (Q15078 whole entry, further chain): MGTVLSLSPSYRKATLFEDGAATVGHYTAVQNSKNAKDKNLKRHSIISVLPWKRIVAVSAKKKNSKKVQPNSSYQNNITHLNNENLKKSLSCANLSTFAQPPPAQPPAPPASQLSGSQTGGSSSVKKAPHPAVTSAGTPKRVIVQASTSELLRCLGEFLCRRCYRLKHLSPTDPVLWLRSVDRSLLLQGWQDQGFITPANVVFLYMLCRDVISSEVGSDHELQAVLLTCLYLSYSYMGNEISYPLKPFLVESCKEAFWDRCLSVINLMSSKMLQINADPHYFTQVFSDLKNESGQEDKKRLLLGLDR

[8] = target: Cyclin-dependent kinase 9 (Homo sapiens, UniProt P50750); assay: Inhibition of CDK9 (unknown origin)
Chain of Cyclin-dependent kinase 9 (P50750 whole entry): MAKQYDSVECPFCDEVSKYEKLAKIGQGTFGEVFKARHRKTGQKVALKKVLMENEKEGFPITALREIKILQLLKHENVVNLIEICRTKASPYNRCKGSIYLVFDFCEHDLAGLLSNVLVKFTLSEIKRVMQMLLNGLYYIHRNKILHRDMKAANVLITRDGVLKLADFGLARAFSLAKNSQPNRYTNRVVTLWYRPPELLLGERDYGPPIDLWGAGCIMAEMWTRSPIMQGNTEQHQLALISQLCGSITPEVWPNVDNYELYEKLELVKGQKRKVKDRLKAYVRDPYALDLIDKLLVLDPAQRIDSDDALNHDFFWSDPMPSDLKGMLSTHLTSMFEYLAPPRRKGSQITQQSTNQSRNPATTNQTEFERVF

[9] = target: Tyrosine-protein kinase BTK (Homo sapiens, UniProt Q06187); assay: Inhibition of BTK (unknown origin)
Chain of Tyrosine-protein kinase BTK (Q06187 whole entry): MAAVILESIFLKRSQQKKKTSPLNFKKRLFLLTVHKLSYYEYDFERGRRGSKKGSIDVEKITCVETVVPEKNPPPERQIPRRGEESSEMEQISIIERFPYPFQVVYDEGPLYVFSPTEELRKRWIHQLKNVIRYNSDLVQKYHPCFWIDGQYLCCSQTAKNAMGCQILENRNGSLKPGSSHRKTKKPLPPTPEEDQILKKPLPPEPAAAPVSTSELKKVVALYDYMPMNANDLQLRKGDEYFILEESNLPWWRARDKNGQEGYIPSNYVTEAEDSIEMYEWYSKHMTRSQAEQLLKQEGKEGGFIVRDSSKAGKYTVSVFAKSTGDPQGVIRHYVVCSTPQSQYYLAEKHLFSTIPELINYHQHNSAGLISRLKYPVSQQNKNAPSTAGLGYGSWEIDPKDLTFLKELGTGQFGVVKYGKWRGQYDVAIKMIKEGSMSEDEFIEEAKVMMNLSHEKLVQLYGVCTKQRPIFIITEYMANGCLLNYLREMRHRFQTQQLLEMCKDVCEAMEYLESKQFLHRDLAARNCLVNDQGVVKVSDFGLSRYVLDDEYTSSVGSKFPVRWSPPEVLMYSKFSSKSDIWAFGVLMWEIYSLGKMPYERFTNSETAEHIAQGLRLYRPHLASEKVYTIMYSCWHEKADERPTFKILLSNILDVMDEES

[10] = target: T1, Inhibitor of nuclear factor kappa-B kinase subunit beta (Homo sapiens, UniProt O14920); assay: Inhibition of IKKbeta (unknown origin)
T1 sequence (O14920 whole entry): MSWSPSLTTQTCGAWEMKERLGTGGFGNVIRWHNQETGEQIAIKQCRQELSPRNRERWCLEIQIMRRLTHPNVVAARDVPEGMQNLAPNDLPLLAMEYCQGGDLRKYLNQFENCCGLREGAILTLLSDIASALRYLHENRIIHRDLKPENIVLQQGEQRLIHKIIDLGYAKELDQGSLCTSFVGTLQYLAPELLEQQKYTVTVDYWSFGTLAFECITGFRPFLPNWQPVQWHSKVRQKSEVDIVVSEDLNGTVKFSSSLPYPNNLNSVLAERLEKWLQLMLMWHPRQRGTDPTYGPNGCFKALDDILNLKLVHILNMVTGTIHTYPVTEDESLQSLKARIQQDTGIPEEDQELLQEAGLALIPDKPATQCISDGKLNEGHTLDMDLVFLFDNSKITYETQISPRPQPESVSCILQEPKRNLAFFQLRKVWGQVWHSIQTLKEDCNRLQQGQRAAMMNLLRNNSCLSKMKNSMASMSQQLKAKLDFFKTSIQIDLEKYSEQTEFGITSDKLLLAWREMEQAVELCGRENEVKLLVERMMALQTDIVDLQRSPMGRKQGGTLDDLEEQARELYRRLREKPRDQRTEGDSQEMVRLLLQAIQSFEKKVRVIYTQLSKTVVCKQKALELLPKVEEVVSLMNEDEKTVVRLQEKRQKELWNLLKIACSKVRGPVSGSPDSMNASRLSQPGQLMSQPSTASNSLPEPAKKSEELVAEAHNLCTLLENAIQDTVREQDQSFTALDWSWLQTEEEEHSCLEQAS

Aurora kinase A = target: T2, Aurora kinase A (Homo sapiens, UniProt O14965); assay: Inhibition of Aurora A (unknown origin)
T2 sequence (O14965 whole entry): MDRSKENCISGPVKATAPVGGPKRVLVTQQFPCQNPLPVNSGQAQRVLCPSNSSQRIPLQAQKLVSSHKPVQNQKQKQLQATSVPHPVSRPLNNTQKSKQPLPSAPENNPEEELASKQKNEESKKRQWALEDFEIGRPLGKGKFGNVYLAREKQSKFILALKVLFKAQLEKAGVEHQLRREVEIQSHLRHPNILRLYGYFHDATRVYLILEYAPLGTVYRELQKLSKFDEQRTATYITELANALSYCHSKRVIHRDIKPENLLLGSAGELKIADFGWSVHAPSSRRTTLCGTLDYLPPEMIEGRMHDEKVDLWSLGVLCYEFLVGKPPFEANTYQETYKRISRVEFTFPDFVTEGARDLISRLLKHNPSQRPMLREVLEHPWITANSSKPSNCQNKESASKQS

Aurora kinase B = Aurora kinase B (Homo sapiens, UniProt Q96GD4); assay: Inhibition of Aurora B (unknown origin)
Chain of Aurora kinase B (Q96GD4 whole entry): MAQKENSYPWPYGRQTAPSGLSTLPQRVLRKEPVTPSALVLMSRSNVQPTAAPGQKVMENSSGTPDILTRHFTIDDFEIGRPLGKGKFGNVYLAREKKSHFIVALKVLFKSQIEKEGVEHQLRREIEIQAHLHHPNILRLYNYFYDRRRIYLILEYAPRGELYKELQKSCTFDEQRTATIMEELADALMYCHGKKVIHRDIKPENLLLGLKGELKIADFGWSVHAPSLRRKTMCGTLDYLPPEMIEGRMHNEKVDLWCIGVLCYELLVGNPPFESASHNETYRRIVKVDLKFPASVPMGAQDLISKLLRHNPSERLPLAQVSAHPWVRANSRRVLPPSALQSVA

[11] = target: T3, Mitogen-activated protein kinase kinase kinase 12 (Homo sapiens, UniProt Q12852); assay: Inhibition of DLK (unknown origin)
T3 sequence (Q12852 whole entry): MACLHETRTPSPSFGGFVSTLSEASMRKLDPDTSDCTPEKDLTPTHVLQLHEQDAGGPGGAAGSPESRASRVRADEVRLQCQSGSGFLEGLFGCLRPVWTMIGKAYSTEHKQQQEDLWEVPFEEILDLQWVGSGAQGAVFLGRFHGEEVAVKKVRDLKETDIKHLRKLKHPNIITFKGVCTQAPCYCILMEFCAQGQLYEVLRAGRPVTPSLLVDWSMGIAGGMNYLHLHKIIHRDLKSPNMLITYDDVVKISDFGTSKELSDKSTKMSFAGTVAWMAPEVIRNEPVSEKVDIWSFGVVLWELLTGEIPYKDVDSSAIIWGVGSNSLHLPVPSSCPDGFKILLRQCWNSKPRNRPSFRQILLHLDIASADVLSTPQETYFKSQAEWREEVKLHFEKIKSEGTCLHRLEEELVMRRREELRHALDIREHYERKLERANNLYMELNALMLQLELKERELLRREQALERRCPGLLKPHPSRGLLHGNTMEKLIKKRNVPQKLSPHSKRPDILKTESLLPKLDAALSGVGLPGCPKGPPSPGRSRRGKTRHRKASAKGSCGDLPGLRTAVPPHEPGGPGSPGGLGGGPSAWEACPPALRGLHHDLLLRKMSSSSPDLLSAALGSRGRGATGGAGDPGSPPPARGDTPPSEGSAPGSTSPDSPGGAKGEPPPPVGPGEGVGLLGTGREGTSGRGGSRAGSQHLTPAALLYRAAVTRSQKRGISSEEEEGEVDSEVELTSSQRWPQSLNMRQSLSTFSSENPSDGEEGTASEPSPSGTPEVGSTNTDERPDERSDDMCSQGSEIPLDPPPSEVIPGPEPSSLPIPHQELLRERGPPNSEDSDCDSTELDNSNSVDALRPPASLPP

[12] = target: T4, Tyrosine-protein kinase ITK/TSK (Homo sapiens, UniProt Q08881); assay: Inhibition of ITK (unknown origin)
T4 sequence (Q08881 whole entry): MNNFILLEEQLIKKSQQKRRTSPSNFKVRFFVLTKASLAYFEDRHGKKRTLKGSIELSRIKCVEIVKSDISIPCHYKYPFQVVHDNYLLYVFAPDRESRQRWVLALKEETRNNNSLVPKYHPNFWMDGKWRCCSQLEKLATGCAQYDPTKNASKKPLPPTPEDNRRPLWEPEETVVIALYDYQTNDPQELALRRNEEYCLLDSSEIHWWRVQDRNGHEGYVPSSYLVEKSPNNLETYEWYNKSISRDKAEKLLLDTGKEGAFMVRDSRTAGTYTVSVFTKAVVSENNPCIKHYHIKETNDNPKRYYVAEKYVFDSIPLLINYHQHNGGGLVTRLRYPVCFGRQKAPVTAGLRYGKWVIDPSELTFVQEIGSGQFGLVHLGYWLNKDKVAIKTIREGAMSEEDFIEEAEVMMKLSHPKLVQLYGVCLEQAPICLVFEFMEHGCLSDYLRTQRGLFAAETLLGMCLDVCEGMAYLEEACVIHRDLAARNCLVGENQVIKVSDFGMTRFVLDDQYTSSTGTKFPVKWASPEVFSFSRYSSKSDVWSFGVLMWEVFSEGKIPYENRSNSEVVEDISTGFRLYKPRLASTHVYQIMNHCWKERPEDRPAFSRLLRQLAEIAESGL

[13] = target: Mitogen-activated protein kinase 10 (Homo sapiens, UniProt P53779); assay: Inhibition of JNK3 (unknown origin) after 22 mins by homogeneous time-resolved fluorescence assay
Chain of Mitogen-activated protein kinase 10 (P53779 whole entry): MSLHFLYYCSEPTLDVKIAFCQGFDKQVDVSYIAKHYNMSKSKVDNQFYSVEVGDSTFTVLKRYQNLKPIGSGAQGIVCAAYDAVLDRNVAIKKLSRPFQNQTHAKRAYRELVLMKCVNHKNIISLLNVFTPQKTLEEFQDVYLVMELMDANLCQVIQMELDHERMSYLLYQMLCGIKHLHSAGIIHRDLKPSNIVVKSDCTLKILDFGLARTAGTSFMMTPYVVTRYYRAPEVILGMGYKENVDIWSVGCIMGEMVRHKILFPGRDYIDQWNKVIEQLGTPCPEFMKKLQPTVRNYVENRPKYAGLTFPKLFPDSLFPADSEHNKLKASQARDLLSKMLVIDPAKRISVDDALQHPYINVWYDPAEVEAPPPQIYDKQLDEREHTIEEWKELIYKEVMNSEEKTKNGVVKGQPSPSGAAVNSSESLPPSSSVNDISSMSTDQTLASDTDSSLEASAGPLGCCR

[14] = target: Mitogen-activated protein kinase 14 (Homo sapiens, UniProt Q16539); assay: Inhibition of MAPK14 (unknown origin) after 22 mins by homogeneous time-resolved fluorescence assay
Chain of Mitogen-activated protein kinase 14 (Q16539 whole entry): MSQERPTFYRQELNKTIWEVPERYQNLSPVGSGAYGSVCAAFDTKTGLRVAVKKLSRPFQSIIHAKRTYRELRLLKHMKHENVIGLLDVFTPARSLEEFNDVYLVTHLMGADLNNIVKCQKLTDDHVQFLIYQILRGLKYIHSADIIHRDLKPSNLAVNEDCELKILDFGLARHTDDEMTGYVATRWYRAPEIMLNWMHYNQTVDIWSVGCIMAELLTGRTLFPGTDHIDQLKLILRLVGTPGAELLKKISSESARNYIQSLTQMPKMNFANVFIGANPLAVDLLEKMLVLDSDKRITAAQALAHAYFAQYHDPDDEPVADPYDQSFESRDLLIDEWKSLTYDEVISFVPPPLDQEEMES

[15] = target: Serine/threonine-protein kinase PAK 1 (Homo sapiens, UniProt Q13153); assay: Inhibition of PAK1 (unknown origin)
Chain of Serine/threonine-protein kinase PAK 1 (Q13153 whole entry): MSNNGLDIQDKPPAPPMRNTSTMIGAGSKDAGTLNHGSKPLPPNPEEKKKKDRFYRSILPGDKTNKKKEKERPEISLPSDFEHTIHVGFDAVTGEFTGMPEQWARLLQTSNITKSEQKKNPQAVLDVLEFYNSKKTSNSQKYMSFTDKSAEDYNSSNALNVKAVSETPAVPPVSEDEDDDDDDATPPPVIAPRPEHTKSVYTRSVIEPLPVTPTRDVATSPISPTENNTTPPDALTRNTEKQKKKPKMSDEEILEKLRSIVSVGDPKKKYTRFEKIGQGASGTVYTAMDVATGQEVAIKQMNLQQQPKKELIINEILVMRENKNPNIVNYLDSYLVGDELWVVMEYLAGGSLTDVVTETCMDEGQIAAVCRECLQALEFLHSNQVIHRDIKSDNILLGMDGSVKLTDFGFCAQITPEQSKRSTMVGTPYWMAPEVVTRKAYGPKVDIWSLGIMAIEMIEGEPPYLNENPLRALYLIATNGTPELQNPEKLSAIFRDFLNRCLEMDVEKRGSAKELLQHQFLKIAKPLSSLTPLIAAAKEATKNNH

[16] = target: High affinity nerve growth factor receptor (Homo sapiens, UniProt P04629); assay: Inhibition of TRKA (unknown origin)
Chain of High affinity nerve growth factor receptor (P04629 whole entry): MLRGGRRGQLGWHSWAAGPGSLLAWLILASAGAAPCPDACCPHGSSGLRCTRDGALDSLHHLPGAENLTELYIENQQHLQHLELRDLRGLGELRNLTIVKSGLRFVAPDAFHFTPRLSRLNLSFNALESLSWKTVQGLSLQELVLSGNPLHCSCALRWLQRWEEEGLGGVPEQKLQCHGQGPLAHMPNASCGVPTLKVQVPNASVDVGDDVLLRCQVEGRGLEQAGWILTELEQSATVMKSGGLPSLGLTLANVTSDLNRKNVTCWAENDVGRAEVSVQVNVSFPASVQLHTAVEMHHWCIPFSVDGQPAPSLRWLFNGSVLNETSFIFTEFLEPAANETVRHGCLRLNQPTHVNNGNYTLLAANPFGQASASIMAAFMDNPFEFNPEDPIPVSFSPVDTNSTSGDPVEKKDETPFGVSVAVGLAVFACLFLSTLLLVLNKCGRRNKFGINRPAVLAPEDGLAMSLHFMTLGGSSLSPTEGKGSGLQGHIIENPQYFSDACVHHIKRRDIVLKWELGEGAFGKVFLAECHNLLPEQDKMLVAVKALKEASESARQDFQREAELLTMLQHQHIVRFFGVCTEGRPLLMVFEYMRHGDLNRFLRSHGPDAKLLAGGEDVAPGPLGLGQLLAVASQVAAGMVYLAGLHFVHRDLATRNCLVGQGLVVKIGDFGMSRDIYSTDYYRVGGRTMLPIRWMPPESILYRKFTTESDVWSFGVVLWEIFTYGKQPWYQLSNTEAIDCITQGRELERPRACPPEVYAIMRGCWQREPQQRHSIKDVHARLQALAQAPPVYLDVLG

[17] = target: Leucine-rich repeat serine/threonine-protein kinase 2 (Homo sapiens, UniProt Q5S007); assay: Inhibition of LRRK2 (unknown origin)
Homo sapiens [18] = species: Homo sapiens; assay: Selectivity ratio of IC50 for CDK9 (unknown origin) to IC50 for CDK2/CyclinE (unknown origin)
Homo sapiens [19] = species: Homo sapiens; assay: Selectivity ratio of IC50 for CDK9 (unknown origin) to IC50 for CDK5/p35 (unknown origin)

Chain of Cyclin-dependent kinase 5/CDK5 activator 1 (Homo sapiens) (Q00535 whole entry): as the sequence (Q00535 whole entry) above
Chain of Cyclin-dependent kinase 5/CDK5 activator 1 (Homo sapiens) (Q15078 99-307 partner limits assumed): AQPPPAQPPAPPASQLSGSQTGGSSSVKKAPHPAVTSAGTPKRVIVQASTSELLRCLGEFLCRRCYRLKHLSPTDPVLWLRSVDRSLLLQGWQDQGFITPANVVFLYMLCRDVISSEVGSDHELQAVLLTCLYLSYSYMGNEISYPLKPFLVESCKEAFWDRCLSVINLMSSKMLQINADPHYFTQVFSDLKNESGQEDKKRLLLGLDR

inhibition [1]: > 90%
IC50 (ASPC1): > 2000 nM
IC50 (BXPC-3): > 2000 nM
IC50 (MIA PaCa-2 [3]): 1560 nM
SMILES: O=C(C/C=C/c1ccccc1)Nc1cc(C2CCC2)[nH]n1
fold change (FC) (MIA PaCa-2 [2]): >2
IC50 [4]: > 2000 nM
IC50 [5]: 1470 nM

inhibition [1]: > 90%
SMILES: Cc1cc(NC(=O)C/C=C/c2ccccc2)n[nH]1
fold change (FC) (MIA PaCa-2 [2]): <2

inhibition [1]: > 90%
SMILES: Cc1cc(NC(=O)Cc2ccc3c(c2)OCCO3)n[nH]1
fold change (FC) (MIA PaCa-2 [2]): <2

IC50 (BXPC-3): 640 nM
IC50 (MIA PaCa-2 [3]): 411 nM
SMILES: O=C(NC1CCNCC1)c1n[nH]cc1NC(=O)c1c(Cl)cccc1Cl [AT-7519]
IC50 [4]: 557 nM
IC50 [5]: 2770 nM

inhibition [1]: > 90%
IC50 (ASPC1): 315 nM
IC50 (MIA PaCa-2 [3]): 247 nM
IC50 [6]: 24 nM
IC50 [7]: 23 nM
IC50 [8]: 911 nM
IC50 [9]: > 10000 nM
IC50 [10]: > 10000 nM
IC50 (Aurora kinase A): > 10000 nM
IC50 (Aurora kinase B): > 10000 nM
IC50 [11]: > 10000 nM
IC50 [12]: > 10000 nM
IC50 [13]: > 10000 nM
IC50 [14]: > 10000 nM
IC50 [15]: > 10000 nM
IC50 [16]: > 10000 nM
IC50 [17]: > 10000 nM
Ratio IC50 (Homo sapiens [18]): > 35
Ratio IC50 (Homo sapiens [19]): > 35
SMILES: O=C(Cc1ccc(-c2ccccc2)cc1)Nc1cc(C2CCC2)[nH]n1
fold change (FC) (MIA PaCa-2 [2]): >2
IC50 [4]: 209 nM
IC50 [5]: 192 nM

inhibition [1]: > 90%
SMILES: O=C(Cc1ccc2c(c1)OCCO2)Nc1cc(C2CCC2)[nH]n1
fold change (FC) (MIA PaCa-2 [2]): <2

inhibition [1]: > 90%
SMILES: O=C(Cc1ccc2c(c1)OCCO2)Nc1cc(-c2ccccc2)[nH]n1
fold change (FC) (MIA PaCa-2 [2]): <2

inhibition [1]: > 90%
IC50 (ASPC1): 1160 nM
IC50 (BXPC-3): > 2000 nM
SMILES: O=C(Cc1ccc2ccccc2c1)Nc1cc(C2CCC2)[nH]n1
fold change (FC) (MIA PaCa-2 [2]): >2
IC50 [4]: > 2000 nM
IC50 [5]: 875 nM

inhibition [1]: > 90%
SMILES: COc1ccc(CC(=O)Nc2n[nH]c3ccccc23)cc1OC
fold change (FC) (MIA PaCa-2 [2]): <2

inhibition [1]: > 90%
SMILES: COc1ccc(CC(=O)Nc2cc(C3CCC3)[nH]n2)cc1OC
fold change (FC) (MIA PaCa-2 [2]): <2

inhibition [1]: > 90%
SMILES: O=C(Cc1ccc2ccccc2c1)Nc1cc(C2CC2)n[nH]1
fold change (FC) (MIA PaCa-2 [2]): <2

inhibition [1]: > 90%
SMILES: O=C(C/C=C/c1ccccc1)Nc1cc(C2CCCC2)[nH]n1
fold change (FC) (MIA PaCa-2 [2]): <2

inhibition [1]: > 90%
SMILES: Cc1cc(NC(=O)Cc2ccc3ccccc3c2)n[nH]1
fold change (FC) (MIA PaCa-2 [2]): <2

inhibition [1]: > 90%
SMILES: O=C(C/C=C/c1ccccc1)Nc1n[nH]c2ccccc12
fold change (FC) (MIA PaCa-2 [2]): <2

inhibition [1]: > 90%
SMILES: O=C(Cc1ccc2c(c1)OCCO2)Nc1cc(C2CCCC2)[nH]n1
fold change (FC) (MIA PaCa-2 [2]): <2
